Experiment [1] concerns the target Histone-lysine N-methyltransferase 2A/WDR5 (Homo sapiens, UniProt P61964). The experiment is described as follows: Inhibition of MLL1/WDR5 (unknown origin) protein-protein interaction incubated for 2 hrs by FP analysis. It counts as protein assay.
Experiment [2] relates to MV4-11. As to the kind of experiment: cells. The format is functional, cell-based. The following applies: Homo sapiens, MV4-11, 72 h.
Description: Antiproliferative activity against human MV4-11 cells assessed as inhibition of cell growth measured after 72 hrs by CellTiterGlo assay
Experiment [3] concerns the target T1, Protein deacetylase HDAC6 (Homo sapiens, UniProt Q9UBN7).
T1 sequence (Q9UBN7 whole entry): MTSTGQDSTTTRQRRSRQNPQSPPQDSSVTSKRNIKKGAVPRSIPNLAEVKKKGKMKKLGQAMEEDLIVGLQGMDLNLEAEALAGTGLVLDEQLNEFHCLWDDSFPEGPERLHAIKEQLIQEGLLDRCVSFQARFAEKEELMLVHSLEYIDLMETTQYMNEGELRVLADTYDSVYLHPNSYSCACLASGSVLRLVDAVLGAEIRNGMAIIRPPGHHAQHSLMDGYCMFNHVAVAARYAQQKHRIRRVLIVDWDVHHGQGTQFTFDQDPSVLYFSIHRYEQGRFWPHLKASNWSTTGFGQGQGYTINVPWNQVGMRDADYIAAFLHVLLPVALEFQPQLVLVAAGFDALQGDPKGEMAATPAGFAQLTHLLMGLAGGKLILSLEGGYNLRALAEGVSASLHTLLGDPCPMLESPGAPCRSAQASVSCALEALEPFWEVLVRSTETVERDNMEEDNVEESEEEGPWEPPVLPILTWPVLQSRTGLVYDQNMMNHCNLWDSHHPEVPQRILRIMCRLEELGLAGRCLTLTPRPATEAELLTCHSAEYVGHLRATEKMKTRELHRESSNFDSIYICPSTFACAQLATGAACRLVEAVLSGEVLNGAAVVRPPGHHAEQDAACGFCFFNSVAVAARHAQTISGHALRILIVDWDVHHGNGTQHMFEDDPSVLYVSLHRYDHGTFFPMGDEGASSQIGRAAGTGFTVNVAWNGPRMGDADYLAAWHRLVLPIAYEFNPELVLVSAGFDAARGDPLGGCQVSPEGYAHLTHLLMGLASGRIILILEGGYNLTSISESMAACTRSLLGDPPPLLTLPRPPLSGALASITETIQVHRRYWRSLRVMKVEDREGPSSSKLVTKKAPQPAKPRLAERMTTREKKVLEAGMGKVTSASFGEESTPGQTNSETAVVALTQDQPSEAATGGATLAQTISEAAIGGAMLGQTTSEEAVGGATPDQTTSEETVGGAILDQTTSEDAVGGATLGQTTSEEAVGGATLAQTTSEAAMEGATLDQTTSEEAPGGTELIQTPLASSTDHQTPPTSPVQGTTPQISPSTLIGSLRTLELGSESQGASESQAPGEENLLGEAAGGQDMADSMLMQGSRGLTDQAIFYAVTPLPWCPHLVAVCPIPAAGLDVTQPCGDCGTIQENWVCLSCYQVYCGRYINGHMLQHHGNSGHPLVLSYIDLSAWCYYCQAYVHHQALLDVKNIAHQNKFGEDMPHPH
As to the kind of experiment: Inhibition of HDAC6 (unknown origin) by fluorescence based assay.

Another experiment relates to MOLM-13. The experiment is described as follows: cells. The format is functional, cell-based. The following applies: Homo sapiens, MOLM-13, 72 h.
The next experiment addresses Histone deacetylase 3 (Homo sapiens, UniProt O15379). The experiment is described as follows: Inhibition of HDAC3 (unknown origin) by fluorescence based assay.
The next experiment deals with Histone deacetylase 1 (Homo sapiens, UniProt Q13547). The experiment is described as follows: Inhibition of HDAC1 (unknown origin) by fluorescence based assay.
Sequence of Histone deacetylase 1 (Q13547 whole entry): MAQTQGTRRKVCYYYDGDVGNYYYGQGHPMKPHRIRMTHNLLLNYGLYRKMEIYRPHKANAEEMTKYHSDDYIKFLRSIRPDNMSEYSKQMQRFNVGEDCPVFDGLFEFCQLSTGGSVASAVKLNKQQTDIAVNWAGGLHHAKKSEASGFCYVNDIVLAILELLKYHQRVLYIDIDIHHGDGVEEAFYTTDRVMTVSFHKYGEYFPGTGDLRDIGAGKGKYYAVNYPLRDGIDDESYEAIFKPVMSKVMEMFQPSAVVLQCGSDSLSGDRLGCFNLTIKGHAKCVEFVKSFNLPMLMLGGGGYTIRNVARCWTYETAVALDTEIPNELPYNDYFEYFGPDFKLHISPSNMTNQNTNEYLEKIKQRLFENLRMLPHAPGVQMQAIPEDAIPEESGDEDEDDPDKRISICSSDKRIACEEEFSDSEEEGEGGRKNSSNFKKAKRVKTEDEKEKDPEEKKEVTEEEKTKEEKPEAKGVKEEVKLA
Experiment [4] has as its system MV4-11. As to the kind of experiment: Induction of apoptosis in human MV4-11 cells assessed as early apoptotic cells at 200 nmol/L incubated for 72 hrs by Annexin V/PI staining based flow cytometry analysis (reference value: 4.17 %). It counts as functional. In general terms: In flow cytometry, cells or beads pass a laser one at a time.
Experiment [5] deals with MV4-11. As to the kind of experiment: Induction of apoptosis in human MV4-11 cells assessed as viable cells at 200 nmol/L incubated for 72 hrs by Annexin V/PI staining based flow cytometry analysis (reference value: 90.23%). It counts as functional.
The subject of experiment [6] is MV4-11. As to the kind of experiment: Induction of apoptosis in human MV4-11 cells assessed as necrotic cells at 200 nmol/L incubated for 72 hrs by Annexin V/PI staining based flow cytometry analysis (reference value: 0.46%). The format is functional.
The subject of experiment [7] is MV4-11. The experiment is described as follows: Induction of apoptosis in human MV4-11 cells assessed as late apoptotic cells at 200 nmol/L incubated for 72 hrs by Annexin V/PI staining based flow cytometry analysis (reference value: 5.14%). The format is functional.
In a further experiment the target is Histone deacetylase 2 (Homo sapiens, UniProt Q92769). The experiment is described as follows: Inhibition of HDAC2 (unknown origin) by fluorescence based assay.
Sequence of Histone deacetylase 2 (Q92769 whole entry): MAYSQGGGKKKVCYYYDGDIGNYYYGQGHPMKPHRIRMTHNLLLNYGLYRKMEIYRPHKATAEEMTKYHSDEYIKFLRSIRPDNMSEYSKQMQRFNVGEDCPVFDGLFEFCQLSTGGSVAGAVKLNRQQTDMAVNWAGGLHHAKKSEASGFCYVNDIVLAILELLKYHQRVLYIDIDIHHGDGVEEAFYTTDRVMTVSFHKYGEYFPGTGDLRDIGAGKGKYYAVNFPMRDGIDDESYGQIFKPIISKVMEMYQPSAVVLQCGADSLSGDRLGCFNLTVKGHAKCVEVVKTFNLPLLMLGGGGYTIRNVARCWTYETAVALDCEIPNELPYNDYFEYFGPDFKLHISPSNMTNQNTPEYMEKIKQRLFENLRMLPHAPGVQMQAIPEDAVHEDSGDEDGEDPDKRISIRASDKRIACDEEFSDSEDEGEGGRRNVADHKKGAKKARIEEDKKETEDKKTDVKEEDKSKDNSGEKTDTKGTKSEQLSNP
A further experiment concerns the target T2, Histone deacetylase 8 (Homo sapiens, UniProt Q9BY41).
T2 sequence (Q9BY41 whole entry): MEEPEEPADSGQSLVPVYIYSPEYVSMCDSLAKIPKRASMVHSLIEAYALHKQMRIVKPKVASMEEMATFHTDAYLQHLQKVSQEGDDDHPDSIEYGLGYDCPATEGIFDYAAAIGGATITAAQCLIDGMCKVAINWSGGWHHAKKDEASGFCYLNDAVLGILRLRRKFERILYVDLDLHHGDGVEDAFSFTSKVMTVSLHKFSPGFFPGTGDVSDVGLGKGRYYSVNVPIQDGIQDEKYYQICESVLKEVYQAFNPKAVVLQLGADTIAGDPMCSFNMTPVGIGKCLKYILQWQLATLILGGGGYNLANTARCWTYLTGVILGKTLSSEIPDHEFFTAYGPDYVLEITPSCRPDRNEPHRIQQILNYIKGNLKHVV
The experiment is described as follows: Inhibition of HDAC8 (unknown origin) by fluorescence based assay.

Experiment [8] concerns the target Histone-lysine N-methyltransferase 2A (Homo sapiens, UniProt Q03164). As to the kind of experiment: Inhibition of MLL1 (unknown origin) by fluorescence based assay.
Another experiment concerns the target T3, Histone deacetylase 11 (Homo sapiens, UniProt Q96DB2).
T3 sequence (Q96DB2 whole entry): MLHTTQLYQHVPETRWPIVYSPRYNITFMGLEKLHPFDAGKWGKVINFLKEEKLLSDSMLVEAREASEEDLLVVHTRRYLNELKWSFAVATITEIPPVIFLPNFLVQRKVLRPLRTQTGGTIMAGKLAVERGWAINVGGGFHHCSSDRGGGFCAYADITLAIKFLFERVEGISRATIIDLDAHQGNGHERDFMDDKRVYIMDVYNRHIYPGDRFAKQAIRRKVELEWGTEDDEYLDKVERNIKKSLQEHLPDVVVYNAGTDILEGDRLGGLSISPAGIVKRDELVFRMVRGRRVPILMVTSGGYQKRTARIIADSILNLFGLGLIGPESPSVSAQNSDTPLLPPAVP
The experiment is described as follows: Inhibition of HDAC11 (unknown origin) by fluorescence based assay.

For a further experiment, the target named is Histone deacetylase 4 (Homo sapiens, UniProt P56524). The experiment is described as follows: Inhibition of HDAC4 (unknown origin) by fluorescence based assay.
Sequence of Histone deacetylase 4 (P56524 whole entry): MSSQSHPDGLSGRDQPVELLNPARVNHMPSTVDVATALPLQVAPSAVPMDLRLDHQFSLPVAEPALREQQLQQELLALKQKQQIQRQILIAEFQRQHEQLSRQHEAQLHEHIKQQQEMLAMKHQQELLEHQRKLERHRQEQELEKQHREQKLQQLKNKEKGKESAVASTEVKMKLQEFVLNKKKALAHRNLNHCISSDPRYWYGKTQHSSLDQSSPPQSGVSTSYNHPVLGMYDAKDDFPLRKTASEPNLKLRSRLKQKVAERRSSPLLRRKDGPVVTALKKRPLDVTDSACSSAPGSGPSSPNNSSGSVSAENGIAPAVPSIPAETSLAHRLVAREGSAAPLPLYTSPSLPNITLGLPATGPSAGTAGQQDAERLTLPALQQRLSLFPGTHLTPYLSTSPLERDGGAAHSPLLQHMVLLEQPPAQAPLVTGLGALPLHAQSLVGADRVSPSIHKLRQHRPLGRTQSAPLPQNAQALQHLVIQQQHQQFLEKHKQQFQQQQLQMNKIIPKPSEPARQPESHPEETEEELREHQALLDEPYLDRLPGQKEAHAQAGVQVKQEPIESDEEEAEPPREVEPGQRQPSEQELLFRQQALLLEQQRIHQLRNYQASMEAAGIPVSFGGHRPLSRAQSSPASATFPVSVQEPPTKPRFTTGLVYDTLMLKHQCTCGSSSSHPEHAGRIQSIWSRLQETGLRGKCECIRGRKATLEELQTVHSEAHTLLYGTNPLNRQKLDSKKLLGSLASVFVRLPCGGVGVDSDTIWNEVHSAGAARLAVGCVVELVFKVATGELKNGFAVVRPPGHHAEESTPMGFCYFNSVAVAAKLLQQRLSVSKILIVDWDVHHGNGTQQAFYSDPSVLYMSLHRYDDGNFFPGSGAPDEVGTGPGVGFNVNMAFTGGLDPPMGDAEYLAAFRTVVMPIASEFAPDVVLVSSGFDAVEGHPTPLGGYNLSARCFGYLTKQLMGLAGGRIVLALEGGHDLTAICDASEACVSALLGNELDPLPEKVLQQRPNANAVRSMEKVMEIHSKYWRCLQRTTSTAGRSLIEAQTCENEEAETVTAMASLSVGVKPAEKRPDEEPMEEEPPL

Sequence of Histone deacetylase 3 (O15379 whole entry): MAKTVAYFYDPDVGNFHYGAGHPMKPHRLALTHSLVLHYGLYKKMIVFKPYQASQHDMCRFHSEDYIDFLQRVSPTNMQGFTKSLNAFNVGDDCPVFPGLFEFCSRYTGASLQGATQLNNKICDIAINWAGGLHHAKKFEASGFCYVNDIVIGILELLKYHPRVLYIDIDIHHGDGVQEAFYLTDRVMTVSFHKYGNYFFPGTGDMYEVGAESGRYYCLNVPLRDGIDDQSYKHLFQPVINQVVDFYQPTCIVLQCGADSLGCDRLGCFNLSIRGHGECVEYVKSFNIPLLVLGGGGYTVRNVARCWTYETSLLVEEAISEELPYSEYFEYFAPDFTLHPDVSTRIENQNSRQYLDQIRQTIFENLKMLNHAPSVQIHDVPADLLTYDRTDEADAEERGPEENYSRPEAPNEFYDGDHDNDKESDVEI
Description for MOLM-13: Antiproliferative activity against human MOLM-13 cells assessed as inhibition of cell growth measured after 72 hrs by CellTiterGlo assay

Regarding `Cc1c(F)c(N)cc(C(=O)Nc2cc(-c3ccc(NC(=O)Cc4ccc(C(=O)NO)cc4)cc3)ccc2N2CCN(C)CC2)c1Cl`, half-maximal inhibition in [1] (IC50) required 87 nM.
In the case of `Cc1c(F)c(N)cc(C(=O)Nc2cc(-c3ccc(NC(=O)c4ccc(/C=C/C(=O)NO)cc4)cc3)ccc2N2CCN(C)CC2)c1Cl`, the 50% inhibitory concentration (IC50) amounted to 122 nM with MV4-11 [2]; 1200 nM in [3]; 2580 nM with MOLM-13; 435 nM in [1]; 5900 nM at Histone deacetylase 3; 6980 nM on Histone deacetylase 1.
In experiment [1], `Cc1c(F)c(N)cc(C(=O)Nc2cc(-c3ccc(C(=O)Nc4ccccc4N)cc3)ccc2N2CCN(C)CC2)c1Cl` yielded an IC50 of 215 nM.
On the same count and under the same terms, under `Cc1c(F)c(N)cc(C(=O)Nc2cc(-c3ccc(C(=O)NCCCCCC(=O)NO)cc3)ccc2N2CCN(C)CC2)c1Cl` stands 71 nM.
Consider `Cc1c(F)c(N)cc(C(=O)Nc2cc(-c3ccc(NC(=O)c4ccccc4N)cc3)ccc2N2CCN(C)CC2)c1Cl`, for which the IC50 in experiment [1] was 410 nM; against Histone deacetylase 3 it was 10000 nM.
Turning to `Cc1c(F)c(N)cc(C(=O)Nc2cc(-c3ccc(NC(=O)CCc4ccc(/C=C/C(=O)NO)cc4)cc3)ccc2N2CCN(C)CC2)c1Cl`, the concentration for half-maximal inhibition (IC50) came out at 145 nM in the experiment on MV4-11 [2]; 157 nM in [3]; 3220 nM with MOLM-13; 382 nM in experiment [1]; 586 nM against Histone deacetylase 3; 925 nM against Histone deacetylase 1.
In the case of `Cc1c(F)c(N)cc(C(=O)Nc2cc(-c3ccc(C(=O)NCCCCCCC(=O)NO)cc3)ccc2N2CCN(C)CC2)c1Cl`, in [1], the half-inhibitory concentration (IC50) was 40 nM.
On the same count and under the same terms, under `Cc1c(F)c(N)cc(C(=O)Nc2cc(-c3ccc(NC(=O)CCCC(=O)NO)cc3)ccc2N2CCN(C)CC2)c1Cl` stands 43 nM; under `Cc1c(F)c(N)cc(C(=O)Nc2cc(-c3ccc(NC(=O)CCCCCC(=O)NO)cc3)ccc2N2CCN(C)CC2)c1Cl`, 181 nM.
As to `Cc1c(F)c(N)cc(C(=O)Nc2cc(-c3ccc(C(=O)NCCCCC(=O)NO)cc3)ccc2N2CCN(C)CC2)c1Cl`, in experiment [1], it took 40 nM to reach half-maximal inhibition (IC50).
In the case of `Cc1c(F)c(N)cc(C(=O)Nc2cc(-c3ccc(NC(=O)c4ccc(CC(=O)NO)cc4)cc3)ccc2N2CCN(C)CC2)c1Cl`, the midpoint of inhibition in experiment [1], the IC50, lay at 226 nM.
Same read-out and setting: as for `Cc1c(F)c(N)cc(C(=O)Nc2cc(-c3ccc(NC(=O)CCCCC(=O)NO)cc3)ccc2N2CCN(C)CC2)c1Cl`, the figure is 33 nM.
For the molecule `O=C(CCCCCCC(=O)Nc1ccccc1)NO` [VORINOSTAT], the Activity worked out at 14.43% with MV4-11 [4], 63.59% in the experiment with MV4-11 [5], 1.42% with MV4-11 [6] and 20.55% with MV4-11 [7].
Turning to `Cc1c(F)c(N)cc(C(=O)Nc2cc(-c3ccc(C(=O)NCCCC(=O)NO)cc3)ccc2N2CCN(C)CC2)c1Cl`, inhibition in experiment [1] was half-maximal at 30 nM (IC50).
`Cc1c(F)c(N)cc(C(=O)Nc2cc(-c3ccc(NC(=O)CCCCCCCC(=O)NO)cc3)ccc2N2CCN(C)CC2)c1Cl` showed a half-inhibitory concentration (IC50) in [1] of 230 nM.
With `Cc1c(F)c(N)cc(C(=O)Nc2cc(-c3ccc(NC(=O)Cc4ccc(/C=C/C(=O)NO)cc4)cc3)ccc2N2CCN(C)CC2)c1Cl`, the half-inhibitory concentration (IC50) with MV4-11 [2] worked out at 115 nM; in experiment [3], 157 nM; in the experiment on MOLM-13 it was 310 nM; in experiment [1] it was 69 nM; against Histone deacetylase 3, 663 nM; against Histone deacetylase 1, 831 nM.
Turning to `Cc1c(F)c(N)cc(C(=O)Nc2cc(-c3ccc(NC(=O)CCCCCCC(=O)NO)cc3)ccc2N2CCN(C)CC2)c1Cl`, the IC50 on Histone deacetylase 2 was 99 nM; at Histone deacetylase 8 it was > 10000 nM; in experiment [8], 392 nM; in experiment [1] it was 41 nM; against Histone deacetylase 11, 7610 nM; against Histone deacetylase 4, 3960 nM.
For the molecule `Cc1c(F)c(N)cc(C(=O)Nc2cc(-c3ccc(C(=O)NCCCCCCCC(=O)NO)cc3)ccc2N2CCN(C)CC2)c1Cl`, the IC50 in experiment [1] amounted to 188 nM.

In general, IC50 refers to the concentration that inhibits the measured activity by half. Read a high IC50 as a need for much substance.
